Counter-ions that a name gives are not always drawn.
How the values were obtained:
rat FAAH = target: T1, rat FAAH (Rattus norvegicus, UniProt P97612); experiment: Assay Method 2: FAAH assay, 3H-anandamide hydrolysis in homogenate of SK-N-MC cells transfected with rat FAAH; format: biochemical; settings: average of results, > = solubility limit or highest concentration tested
T1 sequence (P97612 1-579): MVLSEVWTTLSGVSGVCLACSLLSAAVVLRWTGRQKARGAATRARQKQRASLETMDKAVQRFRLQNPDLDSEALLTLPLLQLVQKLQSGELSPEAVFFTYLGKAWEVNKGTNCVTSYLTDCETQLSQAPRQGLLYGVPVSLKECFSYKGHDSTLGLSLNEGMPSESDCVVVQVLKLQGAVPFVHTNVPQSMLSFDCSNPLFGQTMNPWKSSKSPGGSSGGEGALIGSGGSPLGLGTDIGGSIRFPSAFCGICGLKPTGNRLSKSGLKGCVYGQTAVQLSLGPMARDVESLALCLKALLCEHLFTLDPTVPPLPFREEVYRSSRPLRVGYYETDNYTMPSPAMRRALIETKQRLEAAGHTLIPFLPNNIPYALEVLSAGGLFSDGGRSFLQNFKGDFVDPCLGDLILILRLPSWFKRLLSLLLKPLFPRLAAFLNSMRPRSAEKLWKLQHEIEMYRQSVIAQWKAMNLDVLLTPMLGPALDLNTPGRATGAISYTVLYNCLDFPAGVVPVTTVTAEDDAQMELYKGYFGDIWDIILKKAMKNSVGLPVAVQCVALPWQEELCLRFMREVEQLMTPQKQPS
Summary of the method: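 Homogenate of SK-N-MC cells stably transfected with rat FAAH cDNA (G418-selected clones) in pH 9 Tris/EDTA/glycerol/Triton buffer. Incubated with compound and 80 nM final [3H]-anandamide for 1 h at rt. Released [3H]-ethanolamine separated from substrate on activated charcoal filters and counted by scintillation.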

FAAH = target: T2, FAAH (Homo sapiens, UniProt O00519); experiment: Assay Method 1: FAAH assay, 3H-anandamide hydrolysis in homogenate of T84 cells or SK-N-MC cells transfected with human FAAH; format: biochemical; settings: average of results, > = solubility limit or highest concentration tested
T2 sequence (O00519 1-579): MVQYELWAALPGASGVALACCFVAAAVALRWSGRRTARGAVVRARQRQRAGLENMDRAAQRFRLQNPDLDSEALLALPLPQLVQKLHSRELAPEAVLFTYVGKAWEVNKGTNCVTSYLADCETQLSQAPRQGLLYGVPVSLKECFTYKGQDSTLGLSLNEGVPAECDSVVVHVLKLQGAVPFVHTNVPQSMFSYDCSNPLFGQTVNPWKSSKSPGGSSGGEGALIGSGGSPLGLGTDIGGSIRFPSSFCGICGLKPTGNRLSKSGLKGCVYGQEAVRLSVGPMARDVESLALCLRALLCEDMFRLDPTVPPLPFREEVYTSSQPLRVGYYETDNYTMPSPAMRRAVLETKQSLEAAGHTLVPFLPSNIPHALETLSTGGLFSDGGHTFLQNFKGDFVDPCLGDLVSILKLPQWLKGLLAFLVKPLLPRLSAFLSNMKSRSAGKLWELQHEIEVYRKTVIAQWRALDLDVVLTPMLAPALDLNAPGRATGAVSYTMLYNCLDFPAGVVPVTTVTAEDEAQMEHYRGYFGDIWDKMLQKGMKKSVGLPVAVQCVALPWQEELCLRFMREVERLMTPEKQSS
Summary of the method: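 Homogenates of T84 cells or of SK-N-MC cells stably transfected with human FAAH (G418-selected) were prepared in pH 9 Tris/EDTA/glycerol/Triton buffer. They were incubated with compound and 80 nM final ^3H-anandamide for 1 h at rt. Released ^3H-ethanolamine was separated on activated charcoal and counted by scintillation.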

IC50 (rat FAAH) [nM]	IC50 (FAAH) [nM]	SMILES
12	15	N#Cc1ccc(Oc2cccc(CN3CCN(C(=O)Nc4noc5ccccc45)CC3)c2)cc1 [Example 125, 4-[3-(4-Cyano-phenoxy)-benzyl]-piperazine-1-carboxylic acid benzo[d]isoxazol-3-ylamide]
120	80	N#Cc1cccc(Oc2cccc(CN3CCN(C(=O)Nc4noc5ccccc45)CC3)c2)c1 [Example 129, N-1,2-Benzisoxazol-3-yl-4-[3-(3-cyanophenoxy)benzyl]piperazine-1-carboxamide]
400	230	N#Cc1ccc(Oc2cccc(CN3CCN(C(=O)Nc4noc5ccccc45)CC3)c2)cc1C(F)(F)F [Example 128, N-1,2-Benzisoxazol-3-yl-4-{3-[4-cyano-3-(trifluoromethyl)phenoxy]benzyl}piperazine-1-carboxamide]
16	166	O=C(Nc1cnccn1)N1CCN(Cc2cccc(Oc3cccc(C(F)(F)F)c3)c2)CC1 [Example 60, 4-[3-(3-Trifluoromethyl-phenoxy)-benzyl]-piperazine-1-carboxylic acid pyrazin-2-ylamide trifluoroacetic acid salt]
17	95	O=C(Nc1noc2ccccc12)N1CCN(Cc2cccc(Oc3ccc(F)c(C(F)(F)F)c3)c2)CC1 [Example 28, 4-[3-(4-Fluoro-3-trifluoromethyl-phenoxy)-benzyl]-piperazine-1-carboxylic acid benzo[d]isoxazol-3-ylamide trifluoroacetic acid salt]
17	70	O=C(Nc1nn[nH]n1)N1CCN(Cc2cccc(Oc3ccc4c(c3)OC(F)(F)O4)c2)CC1 [Example 189, 4-{3-[(2,2-Difluoro-1,3-benzodioxol-5-yl)oxy]benzyl}-N-2H-tetrazol-5-ylpiperazine-1-carboxamide]
2	9	CCCCc1ccc(Oc2cccc(CN3CCN(C(=O)Nc4noc5ccccc45)CC3)c2)cc1 [Example 209, 4-[3-(4-Butyl-phenoxy)-benzyl]-piperazine-1-carboxylic acid benzo[d]isoxazol-3-ylamide]
100	10	O=C(Nc1ccon1)N1CCN(Cc2cccc(Oc3ccc(OC(F)(F)F)cc3)c2)CC1 [Example 134, N-Isoxazol-3-yl-4-{3-[4-(trifluoromethoxy)phenoxy]benzyl}piperazine-1-carboxamide]
7000	2300	O=C(Nc1cnccn1)N1CCN(Cc2cccc(OC(F)(F)F)c2)CC1 [Example 61, 4-(3-Trifluoromethoxy-benzyl)-piperazine-1-carboxylic acid pyrazin-2-ylamide trifluoroacetic acid salt]
535	43	O=C(Nc1cnccn1)N1CCN(Cc2cccc(Oc3cccc(Cl)c3)c2)CC1 [Example 225, 4-[3-(3-Chlorophenoxy)benzyl]-N-pyrazin-2-ylpiperazine-1-carboxamide]
5000	43	O=C(Nc1ccon1)N1CCN(Cc2cccc(Oc3ccc(F)c(C(F)(F)F)c3)c2)CC1 [Example 156, 4-{3-[4-Fluoro-3-(trifluoromethyl)phenoxy]benzyl}-N-isoxazol-3-ylpiperazine-1-carboxamide]
40	6	O=C(Nc1cnccn1)N1CCN(Cc2cccc(Oc3ccc(S(=O)(=O)C(F)(F)F)cc3)c2)CC1 [Example 226, N-Pyrazin-2-yl-4-(3-{4-[(trifluoromethyl)sulfonyl]phenoxy}benzyl)-piperazine-1-carboxamide]

Further lines, the compound ahead of its results:

SMILES	IC50 (rat FAAH) [nM]	IC50 (FAAH) [nM]
O=C(Nc1cccc2nonc12)N1CCN(Cc2ccc3c(c2)OC(F)(F)O3)CC1 [Example 5, 4-(2,2-Difluoro-benzo[1,3]dioxol-5-ylmethyl)-piperazine-1-carboxylic acid benzo[1,2,5]oxadiazol-4-ylamide trifluoroacetic acid salt]	1200	170
O=C(Nc1cccc2nonc12)N1CCC(Cc2ccc3ccccc3c2)CC1 [Example 15, 4-Naphthalen-2-ylmethyl-piperidine-1-carboxylic acid benzo[1,2,5]oxadiazol-4-ylamide]	23	59
O=C(Nc1noc2ccccc12)N1CCN(Cc2ccc(Cl)c(OC(F)(F)F)c2)CC1 [Example 105, N-1,2-Benzisoxazol-3-yl-4-[4-chloro-3-(trifluoromethoxy)benzyl]-piperazine-1-carboxamide]	13	100
O=C(Nc1noc2ccccc12)N1CCN(Cc2ccc3[nH]ccc3c2)CC1 [Example 118, N-1,2-Benzisoxazol-3-yl-4-(1H-indol-5-ylmethyl)piperazine-1-carboxamide]	8000	1800
O=C(Nc1cnccn1)N1CCN(Cc2cccc(C#Cc3ccccc3Cl)c2)CC1 [Example 78, 4-{3-[(2-Chlorophenyl)ethynyl]benzyl}-N-pyrazin-2-ylpiperazine-1-carboxamide hydrochloride salt]	410	59
O=C(Nc1nn[nH]n1)N1CCN(Cc2cc3ccccc3s2)CC1 [Example 183, 4-Benzo[b]thiophen-2-ylmethyl-piperazine-1-carboxylic acid (2H-tetrazol-5-yl)-amide]	430	1400
O=C(Nc1noc2ccccc12)N1CCN(Cc2ccc(Br)c(F)c2)CC1 [Example 115, N-1,2-Benzisoxazol-3-yl-4-(4-bromo-3-fluorobenzyl)piperazine-1-carboxamide]	25	40
Cc1ccccc1CCc1cccc(CN2CCN(C(=O)Nc3noc4ccccc34)CC2)c1 [Example 94, 4-[3-(2-o-Tolyl-ethyl)-benzyl]-piperazine-1-carboxylic acid benzo[d]isoxazol-3-ylamide hydrochloride salt]	630	380
O=C(Nc1cccnn1)N1CCN(Cc2ccc3ccccc3n2)CC1 [Example 198, N-Pyridazin-3-yl-4-(quinolin-2-ylmethyl)piperazine-1-carboxamide]	6000	390
O=C(Nc1noc2ccccc12)N1CCN(Cc2cccc(C#CC3CC3)c2)CC1 [Example 76, N-1,2-Benzisoxazol-3-yl-4-[3-(cyclopropylethynyl)benzyl]-piperazine-1-carboxamide]	400	10
O=C(Nc1nn[nH]n1)N1CCN(Cc2ccc(Br)cc2)CC1 [Example 177, 4-(4-Bromo-benzyl)-piperazine-1-carboxylic acid (2H-tetrazol-5-yl)-amide]	1700	5000
O=C(Nc1cnccn1)N1CCN(Cc2ccc3[nH]ccc3c2)CC1 [Example 216, 4-(1H-Indol-5-ylmethyl)-N-pyrazin-2-ylpiperazine-1-carboxamide]	> 10000	> 10000
O=C(Nc1noc2ccccc12)N1CCN(Cc2cccc(OCc3ccccc3)c2)CC1 [Example 99, N-1,2-Benzisoxazol-3-yl-4-[3-(benzyloxy)benzyl]piperazine-1-carboxamide]	260	16
O=C(Nc1ccc2[nH]nnc2c1)N1CCC(Cc2ccc3ccccc3c2)CC1 [Example 16, 4-Naphthalen-2-ylmethyl-piperidine-1-carboxylic acid (1H-benzotriazol-5-yl)-amide]	5	39
